Values of other authors, collected in PMC12308805, “Ultrahigh-Throughput Virtual Screening Strategies against PPI Targets: A Case Study of STAT Inhibitors” (Journal of Chemical Information and Modeling, 2025).
Square brackets hold non-standard residues; d marks the D form. Peptide text beside a SMILES is read from it. * marks the point of attachment. Phe(4-tetrazol-5-yl) = N[C@@H](Cc1ccc(-c2nnn[nH]2)cc1)C(=O)O; pY = N[C@@H](Cc1ccc(OP(=O)(O)O)cc1)C(=O)O; X1 = O=C(c1cc2cc(OP(=O)(O)O)ccc2[nH]1)*; aThr = C[C@H](O)[C@H](N)C(=O)O; Cbz = O=C(OCc1ccccc1)*

Test system: STAT3
Settings: cited from earlier work
In the case of `CC(C)C[C@H](NC(=O)c1cc2cc(OP(=O)(O)O)ccc2[nH]1)C(=O)N1CCC[C@H]1C(=O)N[C@@H](CCC(N)=O)C(=O)N[C@H](C(N)=O)[C@@H](C)O` [CHEMBL485921] (X1-LPQT-NH2), the “Type (known STAT3 active)” value is given as “Active”. For `CC(C)C[C@H](NC(=O)[C@H](Cc1ccc(OP(=O)(O)O)cc1)NC(=O)OCc1ccccc1)C(=O)N1CCC[C@H]1C(=O)N[C@@H](CCC(N)=O)C(=O)N[C@H](C(N)=O)[C@@H](C)O` [CHEMBL435121] (Cbz-[pY]LPQT-NH2), the “Type (known STAT3 active)” value is given as “Active”. In the case of `CC(C)C[C@H](NC(=O)/C=C/c1ccc(OP(=O)(O)O)cc1)C(=O)N1CCC[C@H]1C(=O)N[C@@H](CCC(N)=O)[C@@H](C)OCc1ccccc1` [CHEMBL583758], the “Type (known STAT3 active)” value is listed as “Active”.

Same assay, conditions: sheet 6QHD_actives_decoys, retrospective screening set for STAT3 SH2 domain (PDB 6QHD); decoys are presumed inactives, not tested; ref DUD-E; cited from earlier work
In the case of `C[C@H]1CN(S(=O)(=O)c2ccc(C(=O)Nc3ccc(S(=O)(=O)Nc4nccs4)cc3)cc2)C[C@H](C)O1` [Decoy868], the Type is given as “Inactive (Decoy)”. For `CCN(CC)C(=O)c1c[nH]c2ccc(S(=O)(=O)Nc3ccc4c(c3)OCCO4)cc2c1=O` [Decoy907], the Type is listed as “Inactive (Decoy)”. In the case of `CCOc1ccc(NC(=O)CSC2=C(C#N)[C@@H](c3ccco3)C(C(=O)Nc3cc(OC)ccc3OC)=C(C)N2)cc1` [Decoy933], the Type is listed as “Inactive (Decoy)”. In the case of `COc1cc(CNC(=O)CSc2n[nH]c(N/N=C/c3cc(OC)c(O)cc3[N+](=O)[O-])n2)cc(OC)c1` [Decoy737], the Type is listed as “Inactive (Decoy)”. In the case of `O=c1cc(-c2ccc(O)c(O)c2)oc2cc(O[C@@H]3O[C@H](CO[C@@H]4OC[C@@H](O)[C@@H](O)[C@H]4O)[C@@H](O)[C@H](O)[C@H]3O)cc(O)c12` [Decoy795], the Type is listed as “Inactive (Decoy)”. In the case of `COc1ccccc1NCc1nnc(SCC(=O)Nc2ccc3c(c2)C(O)=NC3=O)n1-c1ccccc1` [Decoy768], the Type is listed as “Inactive (Decoy)”. For `COc1cc(C[C@@]2(O)CO[C@H](c3ccc(O[C@@H]4O[C@H](CO)[C@@H](O)[C@H](O)[C@H]4O)c(OC)c3)[C@H]2CO)ccc1O` [Decoy816], the Type is listed as “Inactive (Decoy)”. In the case of `Cc1cc(NS(=O)(=O)c2ccc(NC(=O)CCCC(=O)Nc3ccc(S(=O)(=O)Nc4cc(C)on4)cc3)cc2)no1` [Decoy746], the Type is listed as “Inactive (Decoy)”. In the case of `CCOC(=O)c1c(NC(=O)CCSc2nnc(COC)n2N)sc2c1CCCC2` [Decoy934], the Type is given as “Inactive (Decoy)”. In the case of `COC(=O)c1sc2cc(SCC(=O)Nc3cc(OC)c(OC)c(OC)c3)ccc2c1/N=C(\O)C(F)(F)F` [Decoy807], the Type is given as “Inactive (Decoy)”. For `COc1cccc(/C=N/NC(=O)[C@H](C)Sc2nnc(S[C@H](C)C(=O)N/N=C/c3cccc(OC)c3OC)s2)c1OC` [Decoy736], the Type is given as “Inactive (Decoy)”.

Same assay, conditions: sheet 6QHD_actives_decoys; known STAT3 actives of the retrospective screening set; ref ChEMBL / literature; cited from earlier work
For `CC(C)C[C@H](NC(=O)[C@H](Cc1ccc(O)cc1)NC(=O)[C@H]1CCCN1C(=O)CN)C(=O)N1CCC[C@H]1C(=O)N[C@@H](CCC(N)=O)C(=O)N[C@H](C(=O)N[C@H](C(N)=O)C(C)C)[C@H](C)O` [CHEMBL2367507] (H-G[dP]YLPQ[aThr]V-NH2), the “Type (known STAT3 active)” value is given as “Active”. In the case of `CC(C)C[C@H](NC(=O)/C=C/c1ccc(OP(=O)(O)O)cc1)C(=O)N1CCC[C@H]1C(=O)N[C@@H](CCC(N)=O)Cc1ccc(O)cc1` [CHEMBL573903], the “Type (known STAT3 active)” value is given as “Active”. In the case of `CC(C)C[C@H](NC(=O)/C=C/c1ccc(OP(=O)(O)O)cc1)C(=O)N1CCC[C@H]1C(=O)N[C@H](COCc1ccccc1)COC(N)=O` [CHEMBL573902], the “Type (known STAT3 active)” value is given as “Active”. For `CC(=O)N[C@@H](Cc1ccc(-c2nn[nH]n2)cc1)C(=O)N[C@@H](CC(C)C)C(=O)N1CCC[C@H]1C(=O)N[C@@H](CCC(N)=O)C(=O)N[C@H](C(=O)N[C@H](C(=O)O)C(C)C)[C@@H](C)O` [CHEMBL439390] (Ac-[Phe(4-tetrazol-5-yl)]LPQTV-OH), the “Type (known STAT3 active)” value is given as “Active”.

Same assay, conditions: sheet 6QHD_actives_decoys; retrospective screening set for STAT3 SH2 domain (PDB 6QHD); […]; ref DUD-E; cited from earlier work
In the case of `COC1=C[C@]23CCCN2CCc2cc4c(cc2[C@@H]3[C@@H]1OC(=O)[C@@](O)(CCCC(C)(C)O)CC(=O)O)OCO4` [Decoy432], the Type is given as “Inactive (Decoy)”. For `Cc1cc(NS(=O)(=O)c2ccc(NC(=S)NC(=O)COc3ccc([N+](=O)[O-])cc3)cc2)no1` [Decoy494], the Type is listed as “Inactive (Decoy)”. For `COc1cc(-n2c(O)c([C@H]3OC(=O)c4c3ccc(OC)c4OC)c(O)nc2=S)cc(OC)c1OC` [Decoy716], the Type is given as “Inactive (Decoy)”. For `CC(=O)Nc1ccc(S(=O)(=O)N[C@@]2(C(F)(F)F)C(=O)N=C3C2=C(O)N=C(S)N3Cc2ccco2)cc1` [Decoy697], the Type is given as “Inactive (Decoy)”. In the case of `O=c1c(C[C@@H](O)CN2CCOCC2)c(O)n(C[C@H](O)CN2CCOCC2)c(=O)n1C[C@H](O)CN1CCOCC1` [Decoy567], the Type is listed as “Inactive (Decoy)”. In the case of `C=C1[C@@H](O)[C@@H]2O[C@]3(CC[C@@H]2O[C@@H]1[C@@H](O)C[C@H](C)[C@H]1O[C@@]2(CCCCO2)CC[C@H]1C)CC[C@H](/C=C/[C@@H](C)[C@H]1CC(C)=C[C@@]2(O[C@@H](C[C@@](C)(O)C(=O)O)CC[C@H]2O)O1)O3` [Decoy484], the Type is given as “Inactive (Decoy)”.

Same assay, conditions: sheet 6QHD_actives_decoys; retrospective screening set for STAT3 SH2 domain (PDB 6QHD); decoys generated with DUD-E and presumed inactive, not tested; ref DUD-E; cited from earlier work
In the case of `CCOC(=O)c1ccc(/N=C2\S[C@@H](CC(=O)Nc3ccc(C(=O)OCC)cc3)C(=O)N2CCc2ccc(Cl)cc2)cc1` [Decoy552], the Type is given as “Inactive (Decoy)”. For `CCCNC(=O)CN1CCN(c2cc(C(=O)O)c3cc(NS(=O)(=O)c4cccs4)ccc3n2)CC1` [Decoy543], the Type is given as “Inactive (Decoy)”. In the case of `COc1ccc([N+](=O)[O-])cc1NC(=S)N[C@@H](NC(=O)c1ccco1)C(Cl)(Cl)Cl` [Decoy690], the Type is listed as “Inactive (Decoy)”. For `NCCCCCC(=O)OC[C@@H]1O[C@@H](Oc2ccc(-c3coc4cc(O)cc(O)c4c3=O)cc2)[C@@H](O)[C@H](O)[C@@H]1O` [Decoy461], the Type is given as “Inactive (Decoy)”. For `Cc1cc(NS(=O)(=O)c2ccc(NC(=O)CCC(=O)Nc3ccc(S(=O)(=O)Nc4cc(C)on4)cc3)cc2)no1` [Decoy702], the Type is given as “Inactive (Decoy)”. For `COc1ccc(C[C@@H]2COC(=O)[C@@H]2Cc2ccc(O[C@@H]3O[C@H](CO)[C@@H](O)[C@H](O)[C@H]3O)c(OC)c2)cc1OC` [Decoy606], the Type is listed as “Inactive (Decoy)”. For `CCOc1cc(/C=N/N=C2\NC(=O)[C@@H](CC(=O)O)S2)cc(Br)c1OS(=O)(=O)c1ccc(C)cc1` [Decoy551], the Type is given as “Inactive (Decoy)”. For `Cc1nn(C)c(C)c1CCCN(C)c1ccc(NS(=O)(=O)c2ccc(C(C)C)cc2)cc1C(=O)O` [Decoy642], the Type is listed as “Inactive (Decoy)”. For `Nc1nc(OCc2cc(Br)cs2)c2ncn(CCCCCCCCO[C@H]3O[C@@H](CO)[C@@H](O)[C@@H](O)[C@@H]3O)c2n1` [Decoy331], the Type is listed as “Inactive (Decoy)”. In the case of `COc1ccccc1NS(=O)(=O)c1ccc(O)c(C(=O)OCC(=O)c2ccc3c(c2)NC(=O)CO3)c1` [Decoy538], the Type is given as “Inactive (Decoy)”. In the case of `C=C(CCO)C(=O)OC[C@H]1OC[C@H](OC(=O)C(=C)CCO[C@@H]2O[C@H](COC(=O)C(=C)CCO)[C@@H](O)[C@H](O)[C@H]2O)[C@@H](O)[C@H]1O` [Decoy493], the Type is listed as “Inactive (Decoy)”. In the case of `COc1cc(C(=O)NCC(=O)N/N=C/c2cc(Br)ccc2OC(=O)c2ccc(C)cc2)cc(OC)c1OC` [Decoy362], the Type is given as “Inactive (Decoy)”. In the case of `CCOC(=O)c1ccc(NC(=O)COc2cc(Br)c([C@H]3NC(=S)N=C(C)/C3=C(/O)OC)cc2OC)cc1` [Decoy489], the Type is given as “Inactive (Decoy)”. In the case of `COc1cc(C[C@H]2CO[C@H](c3ccc(O)c(OC)c3)[C@@H]2CO[C@H]2O[C@@H](CO)[C@@H](O)[C@@H](O)[C@H]2O)ccc1O` [Decoy715], the Type is listed as “Inactive (Decoy)”. In the case of `COc1ccccc1CNC(=O)C[C@@H]1[C@H](O)CC[C@@H]2[C@](C)(CO)[C@H](OC(=O)Nc3cc(OC)c(OC)c(OC)c3)CC[C@]21C` [Decoy724], the Type is listed as “Inactive (Decoy)”. In the case of `Cc1cc(C)n(Cc2ccc(NC(=S)Nc3ccc(S(=O)(=O)Nc4ncccn4)cc3)cc2)n1` [Decoy696], the Type is listed as “Inactive (Decoy)”. For `O=C(CSc1n[nH]c(N/N=C/c2ccc(OCc3ccc(F)cc3)o2)n1)Nc1nccs1` [Decoy487], the Type is given as “Inactive (Decoy)”. For `CCOC(=O)[C@@](NC(=O)c1cccc(Cl)c1)(Nc1ccc(S(=O)(=O)Nc2ccc(OC)nn2)cc1)C(F)(F)F` [Decoy464], the Type is given as “Inactive (Decoy)”. For `Cc1n[nH]c2nc(SCC(=O)NCCc3ccc(S(N)(=O)=O)cc3)[n+](-c3ccc(Br)cc3)c(N)c12` [Decoy390], the Type is listed as “Inactive (Decoy)”. For `CC[C@@H](O)[C@@](C)(O)/C=C(\C)C(=O)[C@H](C)C[C@@](C)(OC)[C@H](O[C@@H]1O[C@H](C)C[C@H](N(C)C)[C@H]1O)[C@@H](C)[C@H](O[C@H]1C[C@@](C)(OC)[C@@H](O)[C@H](C)O1)[C@@H](C)C(=O)O` [Decoy657], the Type is given as “Inactive (Decoy)”. For `COC1=C(S[C@@H]2O[C@H](COC(C)=O)[C@@H](OC(C)=O)[C@H](OC(C)=O)[C@H]2OC(C)=O)C(=O)c2c(O)ccc(O)c2C1=O` [Decoy719], the Type is given as “Inactive (Decoy)”. In the case of `COc1ccccc1OCCNC[C@H](O)CN(CCOc1ccccc1OC)C[C@H](O)COc1cccc2[nH]c3ccccc3c12` [Decoy708], the Type is listed as “Inactive (Decoy)”. In the case of `CCOc1ccc(-n2c(CNC(=O)c3ccc(S(=O)(=O)N(C)C)cc3)nnc2SCC(=O)Nc2cccc(C)c2)cc1` [Decoy520], the Type is listed as “Inactive (Decoy)”. In the case of `Cc1ccc(N(C[C@H](O)[C@@H](O)[C@H](O)CO)/N=N/c2cccc(S(=O)(=O)O)c2)cc1C` [Decoy430], the Type is given as “Inactive (Decoy)”. In the case of `CCOC(=O)c1ccc(NC(=O)CSc2nnc(CNC(=O)COc3ccccc3)n2-c2cccc(C)c2)cc1` [Decoy473], the Type is listed as “Inactive (Decoy)”. For `C=CCn1c(CNc2ccc(C)cc2)nnc1SCCC(=O)Nc1sc(C(=O)OCC)c(C)c1C#N` [Decoy508], the Type is listed as “Inactive (Decoy)”. For `COc1ccc(S(=O)(=O)N(CC(=O)Nc2ccccc2C(=O)NCc2ccco2)c2ccc(F)cc2)cc1OC` [Decoy480], the Type is listed as “Inactive (Decoy)”. In the case of `COc1cc([C@@H]2OC[C@@]3(O)[C@@H](c4ccc(O[C@@H]5O[C@H](CO)[C@@H](O)[C@H](O)[C@H]5O)c(OC)c4)OC[C@@]23O)ccc1O` [Decoy396], the Type is given as “Inactive (Decoy)”. For `C=CCn1c(SCC(=O)Nc2sc(C(=O)OCC)c(C)c2C(=O)OCC)nc2sc3c(c2c1=O)CCCC3` [Decoy554], the Type is given as “Inactive (Decoy)”. For `CCOC(=O)CNC(=O)CN1CCOCCOCCN(CC(=O)NCC(=O)OCC)CCOCCOCC1` [Decoy595], the Type is listed as “Inactive (Decoy)”.
